# Laboratory results as given in US11691984B2, “Compounds and methods for DCAF-mediated protein degradation” (The Scripps Research Institute, priority 2018, dated 2023).
# Legend:
# [1] = target: T1, BRD4 (Homo sapiens, UniProt O60885); experiment: Western blot of BRD4 in DCAF16−/− HEK293 cells; format: cell-based; details: 40 μM KB02-JQ1, 24 hours
# T1 construct: degradation of endogenous BRD4 in HEK293T cells; endogenous in cells; host or cells: HEK293T (A10, A16); HEK293 DCAF16+/+ and DCAF16-/- clones (A11)
# Experimental: DCAF16 CRISPR knockout HEK293 cell pools were generated by Synthego using nucleofection of Cas9-gRNA ribonucleoprotein (RNP) complex. Editing efficiency 48 h post nucleofection of cell pool was 88%. HEK293 editing cell pools were subjected to single cell sorting in The Flow Cytometry Core Facility at Scripps Research. Individual cell clone was grown in 96-well plate until the cells were confluent. To confirm the editing in DCAF16 gene, genomic DNAs from each clone were extracted using PureLink Genomic DNA Mini Kit (Invitrogen). DCAF16 gene was amplified by PCR and confirmed by DNA sequencing. Indel analysis was performed using ICE analysis from Synthego.
# Cells were collected and lysed in 1% NP-40 lysis buffer (25 mM Tris-HCl pH 7.4, 150 mM NaCl, 10% glycerol, 1% Nonidet P-40) with complete protease inhibitor cocktail (Roche). Cells were vortexed and sonicated for 5 pulses (40%, 4). The supernatant was collected after centrifugation at 16,000 g for 10 min at 4° C. Protein concentration was determined by DC assay (Bio-Rad). Protein lysate was heated at 95° C. for 5 min in 1× Laemmli sample buffer. […] The chemiluminescence signal in membrane was recorded after developing in ECL or ECL plus western blotting detection reagent using CL-XPosure film (Thermo Scientific). Relative band intensities were quantified using ImageJ.
# [2] = target: T2, BRD3 (Homo sapiens, UniProt Q15059); experiment: Proteome-wide SILAC MS protein abundance in HEK293T cells: BRD3; format: cell-based; details: KB02-JQ1 20 μM, 24 hours
# T2 construct: endogenous in cells; host or cells: HEK293T
# T2 sequence (Q15059 whole entry): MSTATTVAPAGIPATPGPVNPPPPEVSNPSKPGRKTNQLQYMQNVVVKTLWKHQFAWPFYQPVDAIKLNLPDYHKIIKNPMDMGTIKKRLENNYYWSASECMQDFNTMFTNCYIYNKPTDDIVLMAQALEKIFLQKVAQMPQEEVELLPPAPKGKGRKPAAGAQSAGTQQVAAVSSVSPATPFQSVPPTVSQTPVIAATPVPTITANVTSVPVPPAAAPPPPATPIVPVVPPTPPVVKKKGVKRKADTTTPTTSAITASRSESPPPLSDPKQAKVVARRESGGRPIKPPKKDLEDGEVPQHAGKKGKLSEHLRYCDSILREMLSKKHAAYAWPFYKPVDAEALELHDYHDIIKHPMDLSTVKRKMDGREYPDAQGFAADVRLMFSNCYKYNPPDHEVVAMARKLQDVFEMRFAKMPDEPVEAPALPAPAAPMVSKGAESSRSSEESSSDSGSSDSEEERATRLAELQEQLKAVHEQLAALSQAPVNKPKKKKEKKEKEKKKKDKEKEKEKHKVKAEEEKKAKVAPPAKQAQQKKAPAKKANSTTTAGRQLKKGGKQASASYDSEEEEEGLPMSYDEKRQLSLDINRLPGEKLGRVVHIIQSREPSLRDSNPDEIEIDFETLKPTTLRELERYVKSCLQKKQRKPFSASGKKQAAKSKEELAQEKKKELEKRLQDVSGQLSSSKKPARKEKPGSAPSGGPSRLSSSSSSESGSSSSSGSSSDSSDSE
# Experimental: HEK293T light and heavy SILAC cells were treated with DMSO and KB02-JQ1 (20 μM) or KB02-SLF (2 μM) for 24 hours, respectively. Light and heavy cells were collected and lysed in 1% NP-40 lysis buffer with complete protease inhibitor cocktail. Cells were vortexed and sonicated for 5 pulses (40%, 4). The supernatant was collected after centrifugation at 16,000 g for 10 min at 4° C. Protein concentration was determined by DC assay. 50 μg proteome from light and heavy samples were mixed, followed by methanol/chloroform precipitation. […] Next, the ratio of the peak areas under the light and heavy signals (signal-to-noise ratio>2.5) was calculated. […] In addition, peptides detected as ‘singletons,’ where only the heavy ion of a peptide pair was identified, but that cleared all other filtering parameters, were given a default assigned ratio of ‘20,’ which is defined as any measured ratio that is ≥20 and is the maximum ratio reported here.” The median SILAC ratios from quantified peptides were used as measures of protein abundance. The following quality filters were further applied to generate the plot: (1) proteins must have at least two quantified peptides; (2) proteins must be present in both replicates; (3) for each protein, the standard deviation of measured ratios of peptides must be <1.0.
structure (smiles),measurement,setting,value
"Cc1sc2c(c1C)C(c1ccc(Cl)cc1)=N[C@@H](CC(=O)NCCOCCOCCNC(=O)COc1ccc3c(c1)CCCN3C(=O)CCl)c1nnc(C)n1-2 [KB02-JQ1, (S)-2-((1-(2-chloroacetyl)-1,2,3,4-tetrahydroquinolin-6-yl)oxy)-N-(2-(2-(2-(2-(4-(4-chlorophenyl)-2,3,9-trimethyl-6H-thieno[3,2-f][1,2,4]triazolo[4,3-a][1,4]diazepin-6-yl)acetamido)ethoxy)ethoxy)ethyl)acetamide]",BRD4 degradation in DCAF16−/− cells,[1],substantially blocked
same,BRD3 abundance (MS-based proteomics),[2],not BRD2 or BRD3
